# Test results reported in US7776922B2, “Substituted [(phenylethanoyl)amino]benzamides” (Bayer Schering Pharma Aktiengesellschaft, priority 2004, dated 2010).
# Target: T1, human IL8B receptor (Homo sapiens, UniProt P25025)
# T1 construct: expressed in transfected cells; host or cells: CHO cells with mitochondrially localized aequorin, co-transfected with G-alpha-16
# T1 sequence (P25025 1-360): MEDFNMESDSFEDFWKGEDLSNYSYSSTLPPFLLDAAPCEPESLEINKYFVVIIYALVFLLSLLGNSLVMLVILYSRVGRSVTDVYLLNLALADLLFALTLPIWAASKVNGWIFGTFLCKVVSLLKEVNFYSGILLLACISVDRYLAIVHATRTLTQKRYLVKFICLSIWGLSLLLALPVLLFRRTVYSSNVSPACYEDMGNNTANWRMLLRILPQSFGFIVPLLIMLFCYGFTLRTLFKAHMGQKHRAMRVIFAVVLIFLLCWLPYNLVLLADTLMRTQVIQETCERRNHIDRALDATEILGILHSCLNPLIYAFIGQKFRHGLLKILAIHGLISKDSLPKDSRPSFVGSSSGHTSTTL
# Test: Functional reporter assay for IL8B receptor antagonists (aequorin Ca2+ bioluminescence in transfected CHO cells)
# Type: cell-based
# Conditions: CHO cells with mitochondrially localized aequorin, human IL8B receptor and G-alpha-16; inhibition of IL8-induced Ca2+ transient
# From the text: Functional Reporter Assay for High Throughput Screening of IL8B Receptor Antagonists
# CHO cells with mitochondrially localized aequorin are stably transfected with the human IL8B receptor and the G-alpha-16 protein. Activation of the IL8B receptor with IL8 or an endogenous P2Y receptor with ATP leads to Ca^2+ release. This intracellular Ca^2+ transient can be detected by bioluminescence with mitochondrially localized aequorin. IL8-induced Ca^2+ transients are inhibited by IL8B receptor antagonists.
# 2000 cells in 25 μl of complete medium with 10% FCS per well of a 384-well multititer plate are incubated at 37° C. and 5% CO2 for 24 h. After removal of the medium, 30 μl of an 11.8 μM coelenterazine solution in 2 mM Ca-Tyrode are added, and the cells are incubated at 37° C. in 5% CO2 for a further 4 hours. 10 μl of test substance in 2 mM Ca-Tyrode/0.1% BSA are added, and the cells are incubated at room temperature for 5 minutes. The IL8B receptor is activated by adding 25 μl of a 0.78-2.6 nM IL8 solution in 2 mM Ca-Tyrode/0.1% BSA, or the endogenous P2Y receptor is activated by adding 25 μl of a 7.8-26 μM ATP solution in 2 mM Ca-Tyrode. The bioluminescence is recorded at the same time. IC50 values are calculated from dose-response plots using the Marquardt-Levenberg fit (Table A).
row,IC50 [nM],SMILES
1,100,"CCC(C(=O)Nc1ccc(-c2cc3ccccc3s2)c(C(N)=O)c1)c1ccccc1 (single isomer, unassigned) [Example 1-2, 2-(1-Benzothien-2-yl)-5-[(2-phenylbutanoyl)amino]benzamide]"
2,64,"CCC(C(=O)Nc1ccc(-c2ccc3sccc3c2)c(C(N)=O)c1)c1ccccc1 (single isomer, unassigned) [Example 39-2, 2-(1-Benzothien-5-yl)-5-[(2-phenylbutanoyl)amino]benzamide]"
3,200,"CCOc1ccc2cc(-c3ccc(NC(=O)C(CC)c4ccccc4)cc3C(N)=O)ccc2c1 (stereo not shown) [Example 2, 2-(6-Ethoxy-2-naphthyl)-5-[(2-phenylbutanoyl)amino]benzamide]"
4,82,"CCC(C(=O)Nc1ccc(-c2cc3ccccc3s2)c(C(N)=O)c1)c1nccs1 (stereo not shown) [Example 26, 2-(1-Benzothien-2-yl)-5-{[2-(1,3-thiazol-2-yl)butanoyl]amino}benzamide]"
5,92,"CCC(C(=O)Nc1ccc(-c2ccc(-c3ccccc3)cc2)c(C(N)=O)c1)c1cccs1 (stereo not shown) [Example 29, 4-{[2-(2-Thienyl)butanoyl]amino}-1,1′:4′,1″-terphenyl-2-carboxamide]"
6,77,"CCC(C(=O)Nc1ccc(-c2cc3ccccc3s2)c(C(N)=O)c1)c1cccc(F)c1 (stereo not shown) [Example 30, 2-(1-Benzothien-2-yl)-5-{[2-(3-fluorophenyl)butanoyl]amino}benzamide]"
7,74,"CCC(C(=O)Nc1ccc(-c2cc3ccccc3s2)c(C(N)=O)c1)c1ccc2c(c1)OCCO2 (stereo not shown) [Example 35, 2-(1-Benzothien-2-yl)-5-{[2-(2,3-dihydro-1,4-benzodioxin-6-yl)butanoyl]amino}benzamide]"
